Where two headings read alike, the source gives them in different places.

This note sets out measurements from US20260103479A1, “PRODRUGS OF OPICAPONE” (BIAL- PORTELA & CA, S.A., priority 2022, published 2026).

Data set [1] is described as follows: In vitro stability in rat plasma. The data set is classed as in vitro ADME. As to conditions: 1 μM; after 0.75 h. How it is done:
(§1) The stability of 1 μM of compound 1 was assessed in the following fractions: phosphate buffer, human plasma, rat plasma, human liver S9 fraction, rat liver S9 fraction and rat liver homogenates.
(§2) Reaction was initiated by adding of 1 μM of test compound to the desired matrix (plasma, liver homogenate at 0.4 g/mL or S9 fraction at 1 mg/mL, respectively), with a final volume of 350 μL. At the following time points 0, 5, 15, 30, 45, 60 min, 50 μL of sample is taken and precipitated with 200 μL of acetonitrile 1% formic acid containing the internal standard (opicapone ^13C6) at 1 μM. Samples were centrifuged at 20,000 g at 4° C. for 10 min, and then analysed by LC-MS/MS using a bioanalytical method previously developed in-house.
(§3) The stability of 1 μM of compound 4 was assessed in the following fractions: phosphate buffer, human plasma, rat plasma, human liver S9 fraction, rat liver S9 fraction and rat liver homogenates.
(§4) Reaction was initiated by adding 1 μM of test compound to the desired matrix (plasma or S9 fraction at 1 mg/mL), with a final volume of 250 μL. […] Samples were centrifuged at 20,000 g at 4° C. for 10 min, and then analysed by LC-MS/MS using bioanalytical methods previously developed in-house. […]

Another data set deals with T1, erythrocyte S-COMT (Rattus norvegicus, UniProt P22734).
T1 construct: from tissue; host or cells: erythrocytes of male Wistar rats (haemolysate supernatant, 20 000 x g)
T1 sequence (P22734 1-221 isoform P22734-2): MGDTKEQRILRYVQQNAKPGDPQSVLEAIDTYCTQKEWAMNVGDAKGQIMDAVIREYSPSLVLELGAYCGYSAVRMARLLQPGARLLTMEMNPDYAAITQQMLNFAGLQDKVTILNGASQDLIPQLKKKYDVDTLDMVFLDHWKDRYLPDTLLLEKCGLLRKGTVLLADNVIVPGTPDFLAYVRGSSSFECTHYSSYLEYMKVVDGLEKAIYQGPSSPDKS
The experiment in a line: Subcutaneous pharmacodynamics: erythrocyte S-COMT activity (adrenaline to metanephrine). Particulars: sc, s.c. 3 mg/kg. In kind it is in vivo, male Wistar rats. How it is done:
The pharmacodynamic properties of compounds 1 and 4 compared to oral administered micronized crystalline opicapone were assessed by subcutaneous injection to 4 male Wistar rats (3 mg/kg; DMSO:20% HPBCD (1:9)) then measurement of erythrocyte S-COMT activity over time.
During the studies, blood was collected at different time points, from tail vein, spun at 1500×g in a refrigerated centrifuge (4° C.) for 15 min, and the plasma and erythrocytes obtained were stored at −80° C. until further analysis. The plasma samples collected were analysed for compound 1, compound 4 and opicapone exposure, as previously described
Erythrocyte S-COMT activity was evaluated by the ability to methylate adrenaline to metanephrine. Aliquots of erythrocytes were haemolyzed by addition of 4 volumes of ice-cold ultrapure water and homogenization in a bead mill homogenizer, using glass beads, followed by 10 minutes incubation on wet ice. After centrifugation (20 000×g, 20 minutes, 4° C.), the supernatant containing S-COMT was quantified for total protein using Bradford assay. Supernatants were diluted with water to 4 mg total protein per ml. 100 μL of these diluted supernatants were then pre-incubated in a 96-well plate for 20 min with 80 μL of phosphate buffer (10 mM, pH 7.8); thereafter, the reaction mixture was incubated for 10 min with adrenaline (10 mM; 20 μL) in the presence of a saturating concentration of S-adenosyl-L-methionine, the methyl donor (500 μM). The incubation medium also contained pargyline (100 μM), MgCl2, (100 μM) and EGTA (1 mM). The pre-incubation and incubation were carried out at 37° C., under conditions of light protection with continuous shaking and without oxygenation. At the end of the incubation period the plate was transferred to ice and the reaction was stopped by the addition of 15 μL of glacial acetic acid. 60 μL of each sample were then transferred to a new 96-well containing 400 μL of 0.1% formic acid, followed by plate centrifugation (2000×g, 5 minutes 4° C.). The supernatants were used for the quantification of metanephrine by LC-MS/MS.

The nature of data set [2]: Stability in buffer at pH 1.2, 4.5 and 6.8. The data set is classed as physicochemical. Particulars: 2500 ng/mL, 37° C.; for stability in buffer at pH 1.2 / stability in buffer at pH 4.5 / stability in buffer at pH 6.8: 4 hours. As for the experimental part:
The stability of 2500 ng/mL of compounds 1 and 4 was assessed at different pH values of 1.2, 4.5 and 6.8 over 4 hours at 37° C. • Buffer solutions were prepared as follows: • Buffer solution pH 1.2: • To prepare 1L: • 3.73 g potassium chloride • 7 mL HCl37% • Add purified water • Check/Adjust pH to 1.20±0.05 (using solutions: HCl 1M and/or NaOH 1M) • Buffer solution pH 4.5 • To prepare 1L: • 2.99 g sodium acetate trihydrate • 14 mL acetic acid 2M • Add purified water • Check/Adjust pH to 4.50±0.05 (using solutions: acetic acid 2M and/or NaOH 1M) • Buffer solution pH 6.8 • To prepare 1L: • 6.81 g potassium dihydrogen phosphate • 22 mL NaOH 1M • Add purified water • Check/Adjust pH to 6.80±0.05 (using solutions: HCl 1M and/or NaOH 1M)

The nature of data set [3]: In vitro stability in rat liver S9 fraction. As to conditions: 1 μM; S9 1 mg/mL; after 0.75 h. The data set is classed as in vitro ADME. How it is done:
as §1, §2, §3, §4

The nature of data set [4]: In vitro stability in human liver S9 fraction. The data set is classed as in vitro ADME. Particulars: 1 μM; S9 1 mg/mL; after 0.75 h. How it is done: as §1, §2, §3, §4
Data set [5] in a line: In vitro stability / conversion to opicapone in rat liver homogenates. Particulars: 1 μM. The data set is classed as in vitro ADME. As for the experimental part: as §1, §2, §3
Reaction was initiated by adding 1 μM of test compound to the desired matrix (plasma or S9 fraction at 1 mg/mL), with a final volume of 250 μL. For plasma, at the time points of 0, 15, 30, 45 and 60 min of incubation, 50 μL of sample is taken and precipitated with 100 μL of internal standard working solution (ISWS) consisting of acetonitrile 1% formic acid containing the internal standard (opicapone ^13C6) at 1 μM. For S9 fraction, 50 μL of sample was taken and precipitated with 100 μL of ISWS after 60 min of incubation. For rat liver homogenates (0.2 g/mL of protein), reaction was initiated by adding of 1 μM of test compound with a final volume of 350 μL. At the following time points of 0, 5, 15, 30, 45, 60 min of incubation, 50 μL of sample is taken and precipitated with 200 μL ISWS. Samples were centrifuged at 20,000 g at 4° C. for 10 min, and then analysed by LC-MS/MS using bioanalytical methods previously developed in-house. Compound 4 was stable in all matrices with exception of rat liver homogenates, where the remaining compound was of approximately 31%, after 60 min of incubation. Solutions of the test compounds were prepared at 10 μM using 50 mM potassium phosphate buffer (KPB) at pH 7.4, by adding 1 μL of compound stock at 10 mM to 999 μL KPB 50 mM.

Where [6] appears, read: 2 h after dosing, read-out: maximal inhibition of COMT activity in erythrocytes.
[7] abbreviates: at least until 8 h post-dosing, read-out: inhibition of COMT maintained.

Consider `Cc1c(Cl)c(C)[n+]([O-])c(Cl)c1-c1noc(-c2cc(OP(=O)(O)O)c(O)c([N+](=O)[O-])c2)n1` [Compound 1, 2,5-dichloro-3-(5-(4-hydroxy-3-nitro-5-(phosphonooxy)phenyl)-1,2,4-oxadiazol-3-yl)-4,6-dimethylpyridine 1-oxide], for which the “stability in rat plasma” value in data set [1] is “stable”. Moreover, the inhibition at 3 mg/kg at erythrocyte S-COMT (setting [6]) is 96%. The inhibition at 3 mg/kg at erythrocyte S-COMT (setting [7]) is above 80%. Moreover, in data set [2], the “solubility in buffer at pH 1.2” value was “not immediately soluble”, the “stability in buffer at pH 1.2” value is reported as “stable”, the “stability in buffer at pH 4.5” value is recorded as “stable” and the “stability in buffer at pH 6.8” value was “stable”. Also, the “stability in rat liver S9 fraction” value in data set [3] is on record as “stable”. Besides, the “stability in human liver S9 fraction” value in data set [4] is reported as “stable”. Besides, the “conversion to opicapone in rat liver homogenates” value in data set [5] is “successfully converted to opicapone”. Moreover, in data set [5] (rat liver homogenate 0.4 g/mL, after 0.5 h), the “% remaining of the parent compound” value is on record as “less than 25%”.
As for `Cc1c(Cl)c(C)[n+]([O-])c(Cl)c1-c1noc(-c2cc(OCOP(=O)(O)O)c(O)c([N+](=O)[O-])c2)n1` [Compound 4, 2,5-dichloro-3-(5-(4-hydroxy-3-nitro-5-((phosphonooxy)methoxy)phenyl)-1,2,4-oxadiazol-3-yl)-4,6-dimethylpyridine 1-oxide], the “stability in rat plasma” value in data set [1] is recorded as “stable”. Moreover, the inhibition at 3 mg/kg on erythrocyte S-COMT (setting [6]) is 94%. Further, on erythrocyte S-COMT (setting [7]), the inhibition at 3 mg/kg is above 80%. Also, in data set [2], the “stability in buffer at pH 1.2” value is on record as “stable”, the “stability in buffer at pH 4.5” value was “stable” and the “stability in buffer at pH 6.8” value is “stable”. In addition, the “stability in rat liver S9 fraction” value in data set [3] is reported as “stable”. Further, the “stability in human liver S9 fraction” value in data set [4] was “stable”. In addition, in data set [5], the “conversion to opicapone in rat liver homogenates” value is given as “successfully converted to opicapone”. Besides, the remaining compound result in data set [5] (rat liver homogenates 0.2 g/mL, after 60 min of incubation) was “approximately 31%”.
